Usually Ki stands for a measure of affinity in units of concentration, obtained from inhibition or displacement.

These results are taken from US12509457B2, “Bicyclic nitrogen containing heterocycles as inhibitors of salt-induced kinase SIK2” (priority 2019, dated 2025).

Read-outs that look alike come from different tables or passages of the source.

Holding throughout (format): biochemical
One experiment has as its target SIK2 (Homo sapiens, UniProt Q9H0K1). In words: SIK2 kinase assay, IMAP fluorescence polarization. To be noted: 50 or 100 μM ATP; average; read-out: SIK2-AVERAGE Ki. (Polarisation of emitted light reports the rotation of a fluorescent probe.)
The next experiment has as its target Src (Homo sapiens, UniProt P12931). Nature of the experiment: Src kinase assay, IMAP fluorescence polarization. To be noted: 50 or 100 μM ATP; average; read-out: Src-AVERAGE Ki.
The target in a further experiment is SIK1 (Homo sapiens, UniProt P57059). Nature of the experiment: SIK1 kinase assay, IMAP fluorescence polarization. To be noted: 50 or 100 μM ATP; average; read-out: SIK1-AVERAGE Ki.
Another experiment has as its target SIK3 (Homo sapiens, UniProt Q9Y2K2). In words: SIK3 kinase assay, IMAP fluorescence polarization. To be noted: 50 or 100 μM ATP; average; read-out: SIK3-AVERAGE Ki.
A further experiment addresses EPHA2 (Homo sapiens, UniProt P29317). Nature of the experiment: EPHA2 kinase assay, IMAP fluorescence polarization.
In a further experiment the target is Abl (Homo sapiens, UniProt P00519). In words: Abl kinase assay, IMAP fluorescence polarization. To be noted: 50 or 100 μM ATP; average; read-out: Abl-AVERAGE Ki.
Chain of Abl (P00519 whole entry): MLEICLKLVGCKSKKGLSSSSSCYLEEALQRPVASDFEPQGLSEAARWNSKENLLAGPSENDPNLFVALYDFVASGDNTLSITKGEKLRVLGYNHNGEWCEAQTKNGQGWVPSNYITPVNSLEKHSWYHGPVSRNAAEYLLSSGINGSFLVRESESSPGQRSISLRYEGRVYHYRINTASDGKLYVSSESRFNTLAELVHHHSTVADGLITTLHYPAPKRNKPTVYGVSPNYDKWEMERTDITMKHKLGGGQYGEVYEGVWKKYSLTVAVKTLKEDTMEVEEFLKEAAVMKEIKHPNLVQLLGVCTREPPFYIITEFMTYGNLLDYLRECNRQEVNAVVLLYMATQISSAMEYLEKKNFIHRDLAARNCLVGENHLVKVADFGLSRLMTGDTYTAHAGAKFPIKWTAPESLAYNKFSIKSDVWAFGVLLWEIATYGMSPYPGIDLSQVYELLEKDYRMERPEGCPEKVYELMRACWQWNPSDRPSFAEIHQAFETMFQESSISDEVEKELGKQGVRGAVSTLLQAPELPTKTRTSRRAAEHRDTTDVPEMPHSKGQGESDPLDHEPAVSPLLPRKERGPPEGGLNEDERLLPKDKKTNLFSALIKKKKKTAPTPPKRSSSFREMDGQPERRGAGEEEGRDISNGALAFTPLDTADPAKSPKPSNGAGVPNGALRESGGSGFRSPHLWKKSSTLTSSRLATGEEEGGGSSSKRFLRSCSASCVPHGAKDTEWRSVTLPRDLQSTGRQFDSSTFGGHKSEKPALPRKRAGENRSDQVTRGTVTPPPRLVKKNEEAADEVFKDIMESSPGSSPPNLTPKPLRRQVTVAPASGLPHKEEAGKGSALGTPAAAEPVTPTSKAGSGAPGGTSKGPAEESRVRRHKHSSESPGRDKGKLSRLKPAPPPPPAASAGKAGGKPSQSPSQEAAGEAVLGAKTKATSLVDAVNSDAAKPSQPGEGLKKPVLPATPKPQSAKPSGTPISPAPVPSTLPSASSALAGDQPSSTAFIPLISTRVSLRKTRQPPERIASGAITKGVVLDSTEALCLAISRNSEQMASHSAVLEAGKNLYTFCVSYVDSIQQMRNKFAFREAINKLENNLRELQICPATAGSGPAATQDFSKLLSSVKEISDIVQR

Chain of Src (P12931 whole entry): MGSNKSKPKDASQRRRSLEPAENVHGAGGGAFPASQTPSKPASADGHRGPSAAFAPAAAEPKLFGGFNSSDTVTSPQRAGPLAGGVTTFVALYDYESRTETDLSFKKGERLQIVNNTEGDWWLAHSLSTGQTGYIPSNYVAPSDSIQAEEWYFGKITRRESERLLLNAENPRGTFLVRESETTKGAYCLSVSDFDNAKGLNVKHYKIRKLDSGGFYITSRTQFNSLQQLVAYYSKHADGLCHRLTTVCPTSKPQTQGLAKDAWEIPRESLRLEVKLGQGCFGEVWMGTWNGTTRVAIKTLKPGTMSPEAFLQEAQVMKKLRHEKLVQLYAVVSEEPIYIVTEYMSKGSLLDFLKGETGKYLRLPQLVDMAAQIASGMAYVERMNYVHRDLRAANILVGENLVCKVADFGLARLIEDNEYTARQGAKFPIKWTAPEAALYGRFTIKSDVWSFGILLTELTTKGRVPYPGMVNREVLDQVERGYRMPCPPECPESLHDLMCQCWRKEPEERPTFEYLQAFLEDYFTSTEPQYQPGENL
Chain of SIK3 (Q9Y2K2 whole entry): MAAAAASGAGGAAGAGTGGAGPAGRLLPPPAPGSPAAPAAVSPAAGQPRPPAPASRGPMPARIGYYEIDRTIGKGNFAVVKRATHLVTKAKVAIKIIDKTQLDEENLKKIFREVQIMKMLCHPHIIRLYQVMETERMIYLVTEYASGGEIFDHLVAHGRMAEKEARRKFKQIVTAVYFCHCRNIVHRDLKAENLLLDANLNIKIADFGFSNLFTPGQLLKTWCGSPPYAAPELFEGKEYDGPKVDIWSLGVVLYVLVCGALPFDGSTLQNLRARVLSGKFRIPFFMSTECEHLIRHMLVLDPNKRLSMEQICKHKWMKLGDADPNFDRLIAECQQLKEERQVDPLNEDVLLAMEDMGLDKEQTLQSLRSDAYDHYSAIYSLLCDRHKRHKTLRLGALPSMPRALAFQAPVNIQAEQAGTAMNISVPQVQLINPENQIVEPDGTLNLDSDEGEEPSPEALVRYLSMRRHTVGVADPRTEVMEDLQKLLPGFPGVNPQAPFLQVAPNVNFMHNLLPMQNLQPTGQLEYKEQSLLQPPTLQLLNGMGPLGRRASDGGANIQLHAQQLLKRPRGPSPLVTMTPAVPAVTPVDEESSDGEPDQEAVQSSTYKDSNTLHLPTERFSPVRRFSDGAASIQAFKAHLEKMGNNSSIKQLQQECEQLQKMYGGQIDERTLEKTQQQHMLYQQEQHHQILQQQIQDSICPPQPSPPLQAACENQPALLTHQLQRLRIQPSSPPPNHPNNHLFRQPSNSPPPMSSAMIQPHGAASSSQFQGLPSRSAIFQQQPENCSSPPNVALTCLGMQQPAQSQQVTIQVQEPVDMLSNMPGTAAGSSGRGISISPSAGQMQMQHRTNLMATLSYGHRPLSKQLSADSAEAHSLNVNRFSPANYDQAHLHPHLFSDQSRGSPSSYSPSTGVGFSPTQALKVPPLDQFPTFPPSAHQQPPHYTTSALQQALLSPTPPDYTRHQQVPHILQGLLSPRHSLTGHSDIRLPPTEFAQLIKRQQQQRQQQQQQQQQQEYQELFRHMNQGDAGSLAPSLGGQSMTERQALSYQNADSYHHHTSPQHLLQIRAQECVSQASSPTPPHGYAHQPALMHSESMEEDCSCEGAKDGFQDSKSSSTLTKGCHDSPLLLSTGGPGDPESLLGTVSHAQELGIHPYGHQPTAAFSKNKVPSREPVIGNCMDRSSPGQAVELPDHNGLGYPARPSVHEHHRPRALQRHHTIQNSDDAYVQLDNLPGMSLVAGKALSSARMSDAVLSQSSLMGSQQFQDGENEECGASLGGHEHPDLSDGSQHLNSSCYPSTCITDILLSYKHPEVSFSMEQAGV
Chain of EPHA2 (P29317 24-976): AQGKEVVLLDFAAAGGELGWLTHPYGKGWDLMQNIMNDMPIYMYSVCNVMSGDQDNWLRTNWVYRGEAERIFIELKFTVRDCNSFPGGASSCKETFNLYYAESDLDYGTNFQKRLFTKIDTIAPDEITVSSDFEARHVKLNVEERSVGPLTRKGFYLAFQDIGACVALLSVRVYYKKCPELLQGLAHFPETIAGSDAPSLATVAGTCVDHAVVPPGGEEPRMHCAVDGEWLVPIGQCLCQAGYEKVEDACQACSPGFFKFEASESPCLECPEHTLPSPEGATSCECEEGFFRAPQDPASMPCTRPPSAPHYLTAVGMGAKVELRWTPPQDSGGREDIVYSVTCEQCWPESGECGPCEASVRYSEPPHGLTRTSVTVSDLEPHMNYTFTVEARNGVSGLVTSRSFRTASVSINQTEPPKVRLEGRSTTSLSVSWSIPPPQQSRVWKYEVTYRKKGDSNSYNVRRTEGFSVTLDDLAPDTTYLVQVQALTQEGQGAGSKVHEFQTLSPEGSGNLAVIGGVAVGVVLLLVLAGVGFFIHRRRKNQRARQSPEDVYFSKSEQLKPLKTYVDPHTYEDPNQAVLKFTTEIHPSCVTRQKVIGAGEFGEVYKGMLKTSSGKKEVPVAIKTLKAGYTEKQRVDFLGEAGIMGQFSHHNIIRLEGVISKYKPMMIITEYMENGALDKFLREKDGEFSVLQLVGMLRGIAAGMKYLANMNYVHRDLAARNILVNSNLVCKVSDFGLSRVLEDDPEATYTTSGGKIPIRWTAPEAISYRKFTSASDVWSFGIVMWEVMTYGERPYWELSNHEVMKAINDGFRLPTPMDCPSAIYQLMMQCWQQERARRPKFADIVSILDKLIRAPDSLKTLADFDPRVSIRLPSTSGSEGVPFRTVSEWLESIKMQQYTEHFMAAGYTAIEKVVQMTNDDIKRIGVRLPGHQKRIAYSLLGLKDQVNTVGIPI
Chain of SIK2 (Q9H0K1 whole entry): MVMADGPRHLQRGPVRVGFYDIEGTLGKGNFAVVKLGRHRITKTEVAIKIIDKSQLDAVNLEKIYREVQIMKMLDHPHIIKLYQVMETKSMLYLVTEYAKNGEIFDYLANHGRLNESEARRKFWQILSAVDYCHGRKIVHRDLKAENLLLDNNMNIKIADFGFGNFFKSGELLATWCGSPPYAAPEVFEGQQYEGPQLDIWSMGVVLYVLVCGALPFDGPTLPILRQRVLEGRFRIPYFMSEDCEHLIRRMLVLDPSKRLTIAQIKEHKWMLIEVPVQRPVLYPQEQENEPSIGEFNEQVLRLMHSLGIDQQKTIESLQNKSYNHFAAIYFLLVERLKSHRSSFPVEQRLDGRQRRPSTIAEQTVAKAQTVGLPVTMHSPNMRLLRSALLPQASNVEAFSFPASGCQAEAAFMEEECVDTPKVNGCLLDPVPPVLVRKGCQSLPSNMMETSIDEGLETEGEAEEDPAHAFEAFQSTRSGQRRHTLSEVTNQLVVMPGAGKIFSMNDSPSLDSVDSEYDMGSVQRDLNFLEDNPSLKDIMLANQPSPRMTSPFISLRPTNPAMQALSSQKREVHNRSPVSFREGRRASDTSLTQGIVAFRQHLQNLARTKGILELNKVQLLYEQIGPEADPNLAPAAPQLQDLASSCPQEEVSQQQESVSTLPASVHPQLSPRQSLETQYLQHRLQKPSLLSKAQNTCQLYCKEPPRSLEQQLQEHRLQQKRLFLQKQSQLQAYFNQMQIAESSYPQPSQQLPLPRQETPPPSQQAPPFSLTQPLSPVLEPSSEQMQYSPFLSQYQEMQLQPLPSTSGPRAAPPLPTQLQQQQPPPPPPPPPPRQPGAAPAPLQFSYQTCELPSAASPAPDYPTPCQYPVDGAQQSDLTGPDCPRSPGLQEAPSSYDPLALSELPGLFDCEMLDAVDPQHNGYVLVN

`Cc1cccc(F)c1N1Cc2cnc(N(C)C)cc2N([C@H]2CC[C@@H](N(C)C)CC2)C1=O` [Example 41, cis-7-(dimethylamino)-1-[4-(dimethylamino)cyclohexyl]-3-(2-fluoro-6-methyl-phenyl)-4H-pyrido[4,3-d]pyrimidin-2-one]: the inhibitory constant (Ki) at SIK2 was 102 nM; at Src, over 10000 nM; on SIK1, 478 nM; at SIK3 it was 565 nM; at EPHA2 (50 or 100 μM ATP, average), over 10000 nM; on Abl, over 10000 nM.

As to `Cc1cccc(F)c1N1Cc2cnc(N)cc2N([C@H]2CCC[C@H](N)C2)C1=O` (relative stereo) [Example 55, 7-amino-1-[(trans)-3-aminocyclohexyl]-3-(2-fluoro-6-methyl-phenyl)-4H-pyrido[4,3-d]pyrimidin-2-one], the Ki on SIK2 came to 0.364 nM; at Src, 33 nM; at SIK1, 1.25 nM; at SIK3 it was 4.71 nM; at EPHA2 (50 or 100 μM ATP, average), 7.16 nM; at Abl, 14.3 nM.

On to `Cc1cccc(Cl)c1N1Cc2cnc(N)nc2N(C2CNC2)C1=O` [Example 14, 7-amino-1-(azetidin-3-yl)-3-(2-chloro-6-methyl-phenyl)-4H-pyrimido[4,5-d]pyrimidin-2-one], for which the Ki on SIK2 amounted to 1.67 nM; at Src, 96.1 nM; on SIK1, 5.8 nM; on SIK3, 9.47 nM; on EPHA2 (50 or 100 μM ATP, average), 180 nM; at Abl, 42.5 nM.

For the compound `CN[C@H]1CC[C@H](N2C(=O)N(c3c(C)cccc3F)Cc3cnc(N)cc32)CC1` [Example 64, trans-7-amino-3-(2-fluoro-6-methyl-phenyl)-1-[4-(methylamino)cyclohexyl]-4H-pyrido[4,3-d]pyrimidin-2-one], the Ki at SIK2 worked out at 0.343 nM; on Src, 39.4 nM; on SIK1 it was 0.733 nM; at SIK3 it was 1.35 nM; at EPHA2 (50 or 100 μM ATP, average), 97.4 nM; at Abl, 25.5 nM.

Take `Cc1cccc(F)c1N1Cc2cnc(N)cc2N([C@H]2CCCN(C)CC2)C1=O` [Example 86, 7-amino-3-(2-fluoro-6-methyl-phenyl)-1-[(4S)-1-methylazepan-4-yl]-4H-pyrido[4,3-d]pyrimidin-2-one]: the inhibition constant Ki on SIK2 stood at 0.592 nM; at Src, 644 nM; at SIK1 it was 1.86 nM; on SIK3, 6.15 nM; at EPHA2 (50 or 100 μM ATP, average), 502 nM; at Abl, 94.7 nM.

For `Cc1cccc(F)c1N1Cc2cnc(N)cc2N(C2CN(C)C2)C1=O` [Example 5, 7-amino-3-(2-fluoro-6-methyl-phenyl)-1-(1-methylazetidin-3-yl)-4H-pyrido[4,3-d]pyrimidin-2-one], the Ki on SIK2 is 13.6 nM; on Src it was over 1000 nM; on SIK1, 56 nM; on SIK3 it was 124 nM; on EPHA2 (50 or 100 μM ATP, average), over 1000 nM; at Abl it was over 1000 nM.

In the case of `Cc1cccc(F)c1N1Cc2cnc(N)cc2N([C@H]2CC[C@H](N)CC2)C1=O` [Example 58, trans-7-Amino-1-(4-aminocyclohexyl)-3-(2-fluoro-6-methyl-phenyl)-4H-pyrido[4,3-d]pyrimidin-2-one], the inhibition constant Ki on SIK2 is 0.121 nM; on Src, 18.9 nM; at SIK1, 0.45 nM; at SIK3, 0.279 nM; on EPHA2 (50 or 100 μM ATP, average), 46.5 nM; on Abl it was 28.8 nM.

Regarding `Cc1cccc(F)c1N1Cc2cnc(N)cc2N([C@H]2CCN(C)C2)C1=O` [Example 79, 7-amino-3-(2-fluoro-6-methyl-phenyl)-1-[(3S)-1-methylpyrrolidin-3-yl]-4H-pyrido[4,3-d]pyrimidin-2-one], the Ki on SIK2 was 6.5 nM; at Src, over 10000 nM; on SIK1, 9.67 nM; at SIK3 it was 85.4 nM; on EPHA2, 164 nM; at Abl, 488 nM.

With `Cc1cccc(F)c1N1Cc2cnc(N)nc2N(C2CN(C)C2)C1=O` [Example 21, 7-amino-3-(2-fluoro-6-methyl-phenyl)-1-(1-methylazetidin-3-yl)-4H-pyrimido[4,5-d]pyrimidin-2-one], the inhibitory constant (Ki) at SIK2 was 13.7 nM; at Src, 2560 nM; at SIK1, 47.4 nM; on SIK3 it was 47.9 nM; at EPHA2 (50 or 100 μM ATP, average) it was 388 nM; at Abl, over 10000 nM.

Turning to `Cc1cccc(F)c1N1Cc2cnc(N)nc2N([C@@H]2CCCCNC2)C1=O` [Example 72, 7-amino-1-[(3R)-azepan-3-yl]-3-(2-fluoro-6-methyl-phenyl)-4H-pyrimido[4,5-d]pyrimidin-2-one], the Ki at SIK2 worked out at 1.14 nM; at Src, 50.4 nM; at SIK1, 1.93 nM; at SIK3, 21.1 nM; on EPHA2 (50 or 100 μM ATP, average), 23.7 nM; on Abl, 19.8 nM.

`Cc1cccc(F)c1N1Cc2cnc(N)nc2N([C@H]2CC[C@@H](N)CC2)C1=O` [Example 74, 7-amino-1-(4-aminocyclohexyl)-3-(2-fluoro-6-methyl-phenyl)-4H-pyrimido[4,5-d]pyrimidin-2-one]: the Ki at SIK2 worked out at 0.356 nM; on Src, 49 nM; at SIK1, 1.08 nM; on SIK3 it was 1.98 nM; at EPHA2 (50 or 100 μM ATP, average), 16.3 nM; on Abl, 22.6 nM.

Turning to `CN[C@H]1CC[C@@H](N2C(=O)N(c3c(C)cccc3F)Cc3cnc(N)cc32)CC1` [Example 63, cis-7-amino-3-(2-fluoro-6-methyl-phenyl)-1-[4-(methylamino)cyclohexyl]-4H-pyrido[4,3-d]pyrimidin-2-one], the Ki amounted to 0.676 nM on SIK2; 40.5 nM at Src; 2.2 nM on SIK1; 4.71 nM on SIK3; 57.6 nM on EPHA2 (50 or 100 μM ATP, average); 11 nM at Abl.

For `Cc1cccc(F)c1N1Cc2cnc(N)nc2N([C@H]2CCCN(C)C2)C1=O` [Example 37, 7-amino-3-(2-fluoro-6-methyl-phenyl)-1-[(3S)-1-methyl-3-piperidyl]-4H-pyrimido[4,5-d]pyrimidin-2-one], the Ki at SIK2 worked out at 0.703 nM; at Src, 80.5 nM; at SIK1, 2.5 nM; at SIK3, 6.65 nM; at EPHA2 (50 or 100 μM ATP, average), 25.8 nM; on Abl, 53.2 nM.

Turning to `Cc1cccc(F)c1N1Cc2cnc(N)cc2N([C@H]2CCC[C@@H](N(C)C)C2)C1=O` (relative stereo) [Example 43, 7-amino-1-[cis-3-(dimethylamino)cyclohexyl]-3-(2-fluoro-6-methyl-phenyl)-4H-pyrido[4,3-d]pyrimidin-2-one], the inhibition constant (Ki) came to 1.57 nM at SIK2; 71.3 nM on Src; 1.96 nM on SIK1; 13.4 nM on SIK3; 39.3 nM on EPHA2 (50 or 100 μM ATP, average); 25.3 nM on Abl.

For the compound `Cc1cccc(F)c1N1Cc2cnc(N)cc2N([C@H]2CC[C@H](N(C)C)CC2)C1=O` [Example 59, trans-7-Amino-1-[4-(dimethylamino)cyclohexyl]-3-(2-fluoro-6-methyl-phenyl)-4H-pyrido[4,3-d]pyrimidin-2-one], the Ki on SIK2 turned out to be 0.1 nM; on Src it was 29.7 nM; at SIK1, 0.292 nM; at SIK3 it was 0.143 nM; at EPHA2 (50 or 100 μM ATP, average) it was 123 nM; at Abl, 7.31 nM.
